# From the supplement of paper PMC10307832
# Experiments:
# Test in all cases: relative viability (nuclei count vs DMSO), 5 days (fraction); higher = more cells survive
# [1] = compound: C1=CC2=C(C=C(C(=C2N=C1)O)N=NC3=CC4=C(C=C3)C=C(C=C4)S(=O)(=O)O)S(=O)(=O)O
# In short: (§1)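 A plate was accepted only when its control CV was below 25% and the cells had doubled at least once. Viability is defined from nuclear counts as treated wells divided by vehicle wells, with the median taken across plates. That median covers lung cancer cell lines grown in 1536-well plates, dosed by pinning at five √10-spaced library-drug concentrations, and counted in MetaXpress from 4× Hoechst images after 5 days.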
# AT-7519 = compound: O=C(NC1CCNCC1)c1n[nH]cc1NC(=O)c1c(Cl)cccc1Cl [AT-7519]
# In short: as §1
# [2] = compound: C1=CC2=C(C=C(C(=C2N=C1)O)N=NC3=CC4=C(C=C3)C=C(C=C4)S(=O)(=O)O)S(=O)(=O)O + COc1cccc2cc(-c3nc([C@H]4CC[C@H](C(=O)O)CC4)n4ncnc(N)c34)[nH]c12 [OSI-027] (partner 0.5 µM)
# In short: (§2)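 Relative viability was taken as the ratio of nuclei in treated wells to nuclei in vehicle wells. Lung cancer cell lines in 1536-well plates received compounds by pin tool one day after seeding, either one drug alone or a fixed anchor-drug dose plus five library-drug doses (not always all listed) in √10 steps. Nuclei were counted on 4× images after 5 days of treatment, and values are medians of duplicate plates.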
# AT-7519 + Pemetrexed = compound: O=C(NC1CCNCC1)c1n[nH]cc1NC(=O)c1c(Cl)cccc1Cl [AT-7519] + Nc1nc2[nH]cc(CCc3ccc(C(=O)N[C@@H](CCC(=O)O)C(=O)O)cc3)c2c(=O)[nH]1 [Pemetrexed] (partner 0.2 µM)
# In short: as §2
Cell Line,relative viability ([1]; 0.08 µM),relative viability ([1]; 0.253 µM),relative viability ([1]; 0.8 µM),relative viability ([1]; 2.53 µM),relative viability ([1]; 8 µM),relative viability (AT-7519; 0.01 µM),relative viability (AT-7519; 0.03162 µM),relative viability (AT-7519; 0.3162 µM),relative viability (AT-7519; 1 µM),relative viability ([2]; first compound 0.08 µM),relative viability ([2]; first compound 0.253 µM),relative viability ([2]; first compound 0.8 µM),relative viability ([2]; first compound 2.53 µM),relative viability ([2]; first compound 8 µM),relative viability (AT-7519 + Pemetrexed; first compound 0.01 µM),relative viability (AT-7519 + Pemetrexed; first compound 0.03162 µM),relative viability (AT-7519 + Pemetrexed; first compound 0.3162 µM),relative viability (AT-7519 + Pemetrexed; first compound 1 µM)
NCI-H460,1.07,0.992,0.977,0.987,0.945,1,0.89,0.982,0.601,0.777,0.71,0.654,0.647,0.576,0.0626,0.0564,0.0558,0.0636
NCI-H520,1.09,0.926,1.02,0.985,1.08,1.06,0.925,0.915,0.695,0.215,0.219,0.201,0.274,0.22,0.815,0.635,0.619,0.389
NCI-H522,0.965,0.984,0.872,1.02,0.774,0.814,0.933,0.873,0.897,0.683,0.623,0.565,0.724,0.592,0.992,0.943,1.03,0.929
NCI-H596,1.06,0.987,0.982,1.03,1.01,0.928,0.925,1.04,0.912,0.812,0.653,0.613,0.695,0.663,0.473,0.501,0.459,0.513
NCI-H647,0.877,0.932,0.881,1.08,0.971,1,0.923,0.886,0.72,0.68,0.636,0.603,0.75,0.73,0.142,0.159,0.177,0.129
NCI-H650,0.883,0.937,0.86,0.969,0.671,1.02,0.871,1.01,1.03,0.546,0.511,0.499,0.494,0.293,1.07,1,0.931,1.25
NCI-H661,1.02,1,0.969,1.01,0.967,1.04,0.874,1.02,0.648,0.789,0.736,0.703,0.683,0.687,0.945,0.953,0.99,0.262
NCI-H838,1,0.966,0.924,0.992,0.997,0.925,0.876,0.891,0.615,0.373,0.464,0.354,0.409,0.392,0.247,0.246,0.281,0.115
NCI-H1355,1.08,0.982,0.965,0.993,0.856,1.01,0.961,0.992,1.05,0.386,0.46,0.423,0.459,0.452,1.04,1.03,1.06,0.974
NCI-H1395,0.9,0.939,0.843,0.976,0.899,0.934,0.998,0.816,0.665,0.639,0.663,0.631,0.632,0.657,0.847,0.896,0.899,0.558
NCI-H1437,1,1,0.988,1.05,0.912,0.985,0.99,0.999,0.879,0.93,0.899,0.889,0.961,0.813,0.325,0.326,0.35,0.229
NCI-H1563,1.09,0.96,0.995,0.949,0.878,0.955,0.934,1.02,0.998,0.786,0.732,0.818,0.77,0.727,0.743,0.868,0.81,0.807
NCI-H1648,0.747,0.816,0.677,0.682,1.04,0.877,–,0.832,0.711,0.259,0.251,0.263,0.253,0.185,0.806,–,0.666,0.691
NCI-H1650,0.893,0.93,0.875,0.993,0.773,0.985,1.03,0.88,0.328,0.718,0.542,0.667,0.651,0.65,0.376,0.35,0.323,0.197
NCI-H1651,1.03,0.966,0.961,0.991,0.931,0.959,0.897,1.02,0.997,0.631,0.661,0.668,0.75,0.743,0.677,0.562,0.556,0.744
NCI-H1666,1.04,1.03,0.991,0.966,1.02,0.948,0.906,0.99,0.752,0.897,0.838,0.793,0.827,0.847,0.871,0.777,0.828,0.651
NCI-H1734,1.12,0.981,0.951,0.92,0.996,1.06,0.918,0.782,0.562,0.632,0.602,0.573,0.586,0.349,0.426,0.435,0.383,0.366

Cell Line,relative viability ([1]; 0.08 µM),relative viability ([1]; 0.253 µM),relative viability ([1]; 0.8 µM),relative viability ([1]; 2.53 µM),relative viability ([1]; 8 µM),relative viability (AT-7519; 0.01 µM),relative viability (AT-7519; 0.03162 µM),relative viability (AT-7519; 0.3162 µM),relative viability (AT-7519; 1 µM),relative viability ([2]; first compound 0.08 µM),relative viability ([2]; first compound 0.253 µM),relative viability ([2]; first compound 0.8 µM),relative viability ([2]; first compound 2.53 µM),relative viability ([2]; first compound 8 µM),relative viability (AT-7519 + Pemetrexed; first compound 0.01 µM),relative viability (AT-7519 + Pemetrexed; first compound 0.03162 µM),relative viability (AT-7519 + Pemetrexed; first compound 0.3162 µM),relative viability (AT-7519 + Pemetrexed; first compound 1 µM)
NCI-H1755,1.03,0.962,0.949,1.01,1.03,1.01,0.994,1.02,0.963,0.705,0.74,0.786,0.689,0.703,0.413,0.461,0.566,0.442
NCI-H1792,0.951,0.858,0.877,0.852,0.974,0.664,0.768,0.874,0.989,0.866,0.669,0.726,0.689,0.629,0.612,0.645,0.666,0.919
NCI-H1793,1.1,0.967,0.859,1.02,0.843,0.854,0.9,0.905,0.832,0.285,0.289,0.246,0.264,0.314,0.752,0.882,0.647,0.693
NCI-H1915,1.02,0.968,0.989,0.987,0.966,1.03,0.982,0.881,0.84,0.59,0.667,0.649,0.634,0.628,0.5,0.494,0.516,0.501
NCI-H1944,1.03,0.901,0.944,0.955,0.835,0.909,0.898,0.921,0.87,0.411,0.423,0.414,0.415,0.425,0.633,0.593,0.602,0.511
NCI-H1975,1.01,0.948,0.989,1.01,0.924,1.04,0.849,0.879,0.442,0.784,0.721,0.767,0.68,0.784,0.304,0.302,0.306,0.181
NCI-H1993,1.08,0.965,0.875,0.955,0.944,0.857,0.855,0.776,0.528,0.553,0.547,0.556,0.601,0.584,0.536,0.581,0.522,0.532
NCI-H2009,1.02,0.987,1.03,1.01,0.922,1.06,0.969,1.02,0.78,0.574,0.6,0.645,0.642,0.71,1.11,0.932,1.08,0.869
NCI-H2023,1.02,0.903,0.987,1.1,0.989,1.06,0.873,0.848,0.547,0.434,0.431,0.454,0.367,0.552,0.203,0.233,0.203,0.111
NCI-H2085,1.1,0.997,0.946,1.04,1.03,1.01,1,1.01,1.01,0.901,0.716,0.716,0.974,0.842,0.924,1.01,0.901,0.986
NCI-H2087,0.942,0.999,0.941,0.934,0.869,1.03,0.874,0.991,0.4,0.563,0.536,0.477,0.61,0.682,0.612,0.536,0.568,0.344
NCI-H2126,1.05,0.996,0.908,1.04,0.964,1.01,1,0.94,0.875,0.723,0.662,0.588,0.658,0.632,0.711,0.745,0.689,0.576
NCI-H2170,1.07,0.988,0.97,1.02,0.932,0.967,0.964,1.02,0.991,0.958,0.676,0.666,0.756,0.689,0.263,0.276,0.241,0.25
NCI-H2228,1.31,1.03,0.907,1.01,0.957,1.15,0.926,0.936,0.591,0.765,0.688,0.653,0.57,0.592,0.404,0.395,0.313,0.265
NCI-H2342,0.991,0.989,0.841,1.04,0.876,0.909,0.96,0.906,0.92,0.529,0.657,0.603,0.563,0.674,0.789,0.743,0.762,0.687
NCI-H2347,1.06,0.941,0.974,1.02,0.98,1.05,0.958,1.01,0.762,0.505,0.532,0.5,0.341,0.392,0.462,0.367,0.398,0.453
NCI-H2405,0.972,0.919,0.984,1.02,0.877,0.987,0.973,1.01,0.812,0.649,0.599,0.602,0.644,0.6,1.02,0.996,1.08,0.729
